Data: patent US20120058499A1, “Bioluminescent Detection of Protease Activity” (priority 2010, published 2012)

Assays:
[1] = test system: Otub2, JosD1, JosD2, AMSH, Ataxin3, Ataxin3-like, UCHL5, USP20, and USP14; experiment: Substrate comparison on panel of nine isopeptidases; type: biochemical
Description: For Ub-AMC and Ub-Rhodamine110, all enzymes were diluted into 50 mM Tris, pH 8.0, 5 mM DTT, 0.05% CHAPS to a final concentration of 10 nM. […] Either Ub-AMC or Ub-Rhodamine110 (final reaction concentration equal to 250 nM) were diluted into 50 mM Tris, pH 8.0, 5 mM DTT, 0.05% (w/v) CHAPS. […] For Ub-Rhodamine110, fluorescence was monitored with filters corresponding to excitation at 485 nm and emission at 531 nm.

SENP6 = SENP6 (Homo sapiens, UniProt Q9GZR1); details: enzyme 200 pM; 30 minutes; FIG. 6
Description: (§1) The hSUMO2-amino-luciferin substrate was compared to the Z-Arg-Leu-Arg-Gly-Gly (SEQ ID NO: 1)-amino-luciferin substrate (Promega DUB-Glo™ substrate) to determine the specificity and limit of detection of the activities of six (6) different isopeptidases (USP34, USP7, USP8, SENP1, SENP2, and SENP6). For all enzymes, these two substrates were tested in parallel using the DUB-Glo™ assay system (Promega) according to the manufacturer's instructions. All enzymes were diluted into 50 mM HEPES, pH 7.5, 10 mM DTT, 0.1% Prionex® (Sigma-Aldrich). For testing Z-Arg-Leu-Arg-Gly-Gly (SEQ ID NO: 1)-amino-luciferin, final isopeptidase concentrations for all enzymes were equal to approximately 70 pM to 50 nM. For testing hSUMO2-amino-luciferin, final isopeptidase concentrations for all enzymes were equal to approximately 70 pM to 50 nM. […] The signal in relative luminescence units (RLUs) was measured at 30 minutes from reaction assembly on an EnVision™ multi-label plate reader (Perkin Elmer). The signal to background ratio (S/B) was calculated as (maximum signal/(signal in absence of enzyme) plus or minus the corrected standard deviation of triplicate measurements.

SENP2 = SENP2 (Homo sapiens, UniProt Q9HC62); details: enzyme 200 pM; 30 minutes; FIG. 6
Description: as §1

Sequence of SENP2 (Q9HC62 whole entry, species assumed): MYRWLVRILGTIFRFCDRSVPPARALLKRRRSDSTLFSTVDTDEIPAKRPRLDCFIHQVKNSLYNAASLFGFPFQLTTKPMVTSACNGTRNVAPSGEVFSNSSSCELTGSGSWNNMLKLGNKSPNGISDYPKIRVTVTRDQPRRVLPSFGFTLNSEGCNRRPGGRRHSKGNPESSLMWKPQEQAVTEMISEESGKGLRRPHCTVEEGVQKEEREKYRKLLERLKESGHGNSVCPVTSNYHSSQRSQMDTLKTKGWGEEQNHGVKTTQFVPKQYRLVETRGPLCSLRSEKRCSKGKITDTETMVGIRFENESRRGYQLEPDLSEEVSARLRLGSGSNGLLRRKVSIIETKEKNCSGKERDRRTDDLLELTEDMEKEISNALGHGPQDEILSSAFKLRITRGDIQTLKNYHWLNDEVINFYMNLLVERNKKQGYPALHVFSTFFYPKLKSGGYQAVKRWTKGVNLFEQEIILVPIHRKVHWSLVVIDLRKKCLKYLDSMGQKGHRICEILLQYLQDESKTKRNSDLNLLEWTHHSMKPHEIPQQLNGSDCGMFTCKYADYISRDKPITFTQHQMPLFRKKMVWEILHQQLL
Sequence of SENP6 (Q9GZR1 whole entry, species assumed): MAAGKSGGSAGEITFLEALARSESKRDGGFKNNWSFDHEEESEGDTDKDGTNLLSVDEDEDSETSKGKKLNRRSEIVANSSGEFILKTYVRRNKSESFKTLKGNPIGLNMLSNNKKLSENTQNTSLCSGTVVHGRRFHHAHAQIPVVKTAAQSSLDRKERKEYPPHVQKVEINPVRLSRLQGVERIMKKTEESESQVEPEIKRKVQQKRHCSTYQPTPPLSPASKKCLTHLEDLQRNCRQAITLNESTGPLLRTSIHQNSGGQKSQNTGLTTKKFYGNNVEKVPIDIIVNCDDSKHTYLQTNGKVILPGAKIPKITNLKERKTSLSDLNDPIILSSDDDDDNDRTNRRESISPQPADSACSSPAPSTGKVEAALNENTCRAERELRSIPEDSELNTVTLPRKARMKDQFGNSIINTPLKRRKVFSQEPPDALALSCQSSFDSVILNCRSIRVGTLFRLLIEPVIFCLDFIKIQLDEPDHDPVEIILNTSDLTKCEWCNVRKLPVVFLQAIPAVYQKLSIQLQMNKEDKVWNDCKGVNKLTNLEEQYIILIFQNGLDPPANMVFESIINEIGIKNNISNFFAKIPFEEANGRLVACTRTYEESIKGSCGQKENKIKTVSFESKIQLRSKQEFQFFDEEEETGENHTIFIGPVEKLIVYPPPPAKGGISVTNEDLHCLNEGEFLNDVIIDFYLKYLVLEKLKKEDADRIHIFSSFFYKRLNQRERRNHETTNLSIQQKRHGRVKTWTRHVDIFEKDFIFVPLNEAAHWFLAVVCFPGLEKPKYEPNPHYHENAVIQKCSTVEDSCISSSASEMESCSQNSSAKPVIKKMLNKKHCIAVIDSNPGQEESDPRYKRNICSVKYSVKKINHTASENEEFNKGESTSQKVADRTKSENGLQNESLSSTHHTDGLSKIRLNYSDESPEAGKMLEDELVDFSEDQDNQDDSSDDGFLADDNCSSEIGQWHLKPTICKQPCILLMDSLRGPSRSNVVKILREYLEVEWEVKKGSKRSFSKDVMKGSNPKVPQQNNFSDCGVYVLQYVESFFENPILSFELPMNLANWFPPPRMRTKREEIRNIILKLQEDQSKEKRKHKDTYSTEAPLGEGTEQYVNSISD

signal (RLU, S/B) (SENP6)	signal (RLU, S/B) (SENP2)	Substance	S/B towards Ub-amino-luciferin, fold higher than Ub-AMC / Ub-Rhodamine110 ([1]; equivalent molar concentrations, seven of nine DUBs (exceptions JosD2 and UCHL5))	fold greater S/B compared to Z-RLRGG-amino-luciferin (DUB-Glo reagent) ([1]; range over panel of 9 isopeptidases, 10 nM)
		Ub(1-76)-aminoluciferin [Ub-LUC]	10-1000 fold	10-1000 fold
gave signals	gave signals	Z-Arg-Leu-Arg-Gly-Gly (SEQ ID NO: 1)-amino-luciferin [DUB-glo ™]		
